Assay results as given in patent US20250261636A1, “QUATERNARY AMMONIUM SANITIZING COMPOSITION” (ECOLAB USA INC., priority 2020, published 2025).
“And” between values parts separate entries of the source, which are not always exact repeats. Identical values can stand only once.

Assays:
[1] = tested on: Staphylococcus aureus ATCC 6538; test: AOAC Method 960.09 Germicidal and Detergent Sanitizing Action of Disinfectants, food contact sanitizing suspension test; format: cell-based; conditions: for Average Log Reduction / CFU - Dilution 1E−01 / CFU - Dilution 1E−02 / CFU/mL / Log / Log Reduction: 50 ppm; for Average Log Reduction / CFU - Dilution 1E−01 / CFU - Dilution 1E−02 / CFU/mL / Log: Example 4; for Log Reduction: Example 4, per replicate
Procedure: (§1) The microbial efficacy of the multipurpose sanitizing composition was evaluated for food contact applications. The purpose of the testing is to determine the efficacy of compositions used for sanitizing food contact surfaces, which in the evaluations were pre-cleaned, non-porous surfaces using AOAC Method 960.09 Germicidal and Detergent Sanitizing Action of Disinfectants. […] The test organisms included Staphylococcus aureus ATCC 6538 and Escherichia coli ATCC 11229.
(§2) The pH was adjusted by use of a polycarboxylic acid (unless otherwise noted, such as the polycarboxylate citrate tested at pH 8). In this screening test pH 9, 8, 7, 5, 4, and 3 were tested. “NT” indicates a condition was “Not Tested.”

[2] = tested on: Escherichia coli ATCC 11229; test: as above; format: cell-based
Procedure: as §1, §2

[3] = pH 7.5-8 (no pH adjustment), 77° F.
[4] = 50 ppm, pH 4, 77° F., Example 4
[5] = 50 ppm, pH 5, 77° F., Example 4
[6] = 50 ppm, pH 6, 77° F., Example 4
[7] = 50 ppm, pH 7, 77° F., Example 3
[8] = 50 ppm, pH 7 as printed (second sample of Table 15), 77° F.
[9] = 50 ppm, pH 7.5-8 (no pH adjustment), 77° F., Example 4

## didecyl dimethyl ammonium carbonate/bicarbonate [CarboQuat]
[1]; 20 ppm, pH 5, 120° F.
  log reduction S. aureus (ATCC 6538): 6.88 log
[1]; 30 ppm, pH 5, 120° F.
  log reduction S. aureus (ATCC 6538): 6.69 log and 6.88 log
[1]; 30 ppm, pH 8, 120° F.
  log reduction S. aureus (ATCC 6538): 6.69 log
[1]; 40 ppm, pH 8, 120° F.
  log reduction S. aureus (ATCC 6538): 6.69 log
[1]; pH 4, 77° F.
  Average Log Reduction: 6.89 log
  CFU - Dilution 1E−01: 0 CFU
  CFU - Dilution 1E−02: 0 CFU
  CFU/mL: 1.0E+01 CFU/mL
  Log: 1.00
  Log Reduction: 6.89 log
[1]; pH 5, 77° F.
  Average Log Reduction: 6.89 log
  CFU - Dilution 1E−01: 0 CFU
  CFU - Dilution 1E−02: 0 CFU
  CFU/mL: 1.0E+01 CFU/mL
  Log: 1.00
  Log Reduction: 6.89 log
[1]; pH 6, 77° F.
  Average Log Reduction: 6.89 log
  CFU - Dilution 1E−01: 0 CFU
  CFU/mL: 1.0E+01 CFU/mL
  Log: 1.00
  Log Reduction: 6.89 log
[1]; [3]
  Average Log Reduction: 6.89 log
  CFU - Dilution 1E−01: 0 CFU
  CFU - Dilution 1E−02: 0 CFU
  CFU/mL: 1.0E+01 CFU/mL
  Log: 1.00
  Log Reduction: 6.89 log
[2]; 20 ppm, pH 5, 120° F.
  log reduction E. coli (ATCC 11229): 5.08 log
[2]; 30 ppm, pH 3, 120° F.
  log reduction E. coli (ATCC 11229): 6.25 log
[2]; 30 ppm, pH 4, 120° F.
  log reduction E. coli (ATCC 11229): 6.88 log
[2]; 30 ppm, pH 5, 104° F.
  Average Log Reduction: 5.61 log
  CFU - Dilution 1E−01: 14 CFU and 28 CFU
  CFU - Dilution 1E−02: 3 CFU and 6 CFU
[2]; 30 ppm, pH 5, 104° F., per replicate
  Log Reduction: 5.76 log and 5.46 log
[2]; 30 ppm, pH 5, citric acid, 120° F.
  log reduction E. coli (ATCC 11229): 6.67 log
[2]; 30 ppm, pH 5, formic acid, 120° F.
  log reduction E. coli (ATCC 11229): 6.67 log
[2]; 30 ppm, pH 7, 104° F.
  Average Log Reduction: 3.47 log
  CFU - Dilution 1E−01: TNTC
  CFU - Dilution 1E−02: TNTC
  CFU/mL: 3.00E+04 CFU/mL
  Log: 4.48
[2]; 30 ppm, pH 7, 104° F., per replicate
  Log Reduction: 3.47 log
[2]; 30 ppm, pH 7, 120° F.
  Average Log Reduction: 6.68 log
  CFU - Dilution 1E−01: 0 CFU
  CFU - Dilution 1E−02: 0 CFU
  CFU/mL: 1E+01 CFU/mL
  Log: 1.00
[2]; 30 ppm, pH 7, 120° F., per replicate
  Log Reduction: 6.68 log
[2]; 30 ppm, pH 8, 120° F.
  Average Log Reduction: 3.21 log
  CFU - Dilution 1E−01: TNTC
  CFU - Dilution 1E−02: TNTC
  CFU/mL: 3.00E+04 CFU/mL
  Log: 4.48
[2]; 30 ppm, pH 8, 120° F., per replicate
  Log Reduction: 3.21 log
[2]; 30 ppm, pH 8, citrate, 120° F.
  log reduction E. coli (ATCC 11229): 3.20 log
[2]; 40 ppm, pH 8, 120° F.
  Average Log Reduction: 5.70 log
[2]; 40 ppm, pH 8, 120° F., per replicate
  Log Reduction: 5.28 log and 6.12 log
[2]; [4]
  Average Log Reduction: 5.22 log
  CFU - Dilution 1E−01: 44 CFU
  CFU - Dilution 1E−02: 7 CFU and 4 CFU
  CFU/mL: 4.6E+02 CFU/mL and 4.4E+02 CFU/mL
  Log: 2.67 and 2.64
[2]; 50 ppm, pH 4, 77° F., Example 4, per replicate
  Log Reduction: 5.21 log and 5.23 log
[2]; 50 ppm, pH 5, 77° F., Example 3
  log reduction E. coli (ATCC 11229): 6.70 log
[2]; [5]
  Average Log Reduction: 6.87 log
  CFU - Dilution 1E−01: 0 CFU
  CFU - Dilution 1E−02: 0 CFU
  CFU/mL: 1.0E+01 CFU/mL
  Log: 1.00
[2]; 50 ppm, pH 5, 77° F., Example 4, per replicate
  Log Reduction: 6.87 log
[2]; 50 ppm, pH 5, 104° F.
  log reduction E. coli (ATCC 11229): 6.95 log
[2]; [6]
  Average Log Reduction: 4.07 log
  CFU - Dilution 1E−01: TNTC
  CFU - Dilution 1E−02: 84 CFU and 48 CFU
  CFU/mL: 8.4E+03 CFU/mL and 4.8E+03 CFU/mL
  Log: 3.92 and 3.68
[2]; 50 ppm, pH 6, 77° F., Example 4, per replicate
  Log Reduction: 3.95 log and 4.19 log
[2]; [7]
  Average Log Reduction: 3.35 log
  CFU - Dilution 1E−01: TNTC
  CFU - Dilution 1E−02: TNTC
  CFU/mL: 3.00E+04 CFU/mL
  Log: 4.48
[2]; 50 ppm, pH 7, 77° F., Example 3, per replicate
  Log Reduction: 3.35 log
[2]; 50 ppm, pH 7, 104° F.
  log reduction E. coli (ATCC 11229): 6.71 log
[2]; [8]
  Average Log Reduction: 6.70 log
  CFU - Dilution 1E−01: 2 CFU and 1 CFU
  CFU - Dilution 1E−02: 0 CFU
  CFU/mL: 2E+01 CFU/mL and 1E+01 CFU/mL
  Log: 1.26 and 1.00
[2]; 50 ppm, pH 7 as printed (second sample of Table 15), 77° F., per replicate
  Log Reduction: 6.57 log and 6.83 log
[2]; [9]
  Average Log Reduction: 3.40 log
  CFU - Dilution 1E−01: TNTC
  CFU - Dilution 1E−02: TNTC
  CFU/mL: 3.0E+04 CFU/mL
  Log: 4.48
[2]; 50 ppm, pH 7.5-8 (no pH adjustment), 77° F., Example 4, per replicate
  Log Reduction: 3.40 log
[2]; 50 ppm, pH 9, 77° F., Example 3
  log reduction E. coli (ATCC 11229): 3.35 log
[2]; 50 ppm, pH 9, 104° F.
  log reduction E. coli (ATCC 11229): 5.33 log
[2]; 75 ppm, pH 5, 77° F., Example 3
  log reduction E. coli (ATCC 11229): 6.83 log
[2]; 75 ppm, pH 5, 104° F.
  log reduction E. coli (ATCC 11229): 6.95 log
[2]; 75 ppm, pH 7, 77° F., Example 3
  log reduction E. coli (ATCC 11229): 6.83 log
[2]; 75 ppm, pH 7, 104° F.
  log reduction E. coli (ATCC 11229): 6.95 log
[2]; 75 ppm, pH 9, 77° F., Example 3
  log reduction E. coli (ATCC 11229): 6.50 log
[2]; 75 ppm, pH 9, 104° F.
  log reduction E. coli (ATCC 11229): 6.95 log
[2]; 100 ppm, pH 5, 77° F., Example 3
  log reduction E. coli (ATCC 11229): 6.83 log
[2]; 100 ppm, pH 9, 77° F., Example 3
  log reduction E. coli (ATCC 11229): 6.83 log
